According to ChEMBL document CHEMBL1201862, “PubChem BioAssay data set” (2004):
The source made the active and inactive calls.

Columns and labels:
Type in all cases: functional
[1] = biological target: T1, Delta-type opioid receptor (Homo sapiens, UniProt P41143); assay: DOR agonists, SAR follow-up, image-based (AID 2370)
[2] = biological target: T1, Delta-type opioid receptor; assay: DOR antagonists, SAR follow-up, image-based (AID 2357)
[3] = biological target: T2, Kappa-type opioid receptor (Homo sapiens, UniProt P41145); assay: SAR analysis of small molecule agonists of the kappa opioid receptor via a luminescent beta-arrestin assay. [Related pubchem assays (depositor defined):AID1777, AID1786, AID1966, AID2133, AID2136, AID2348, AID2352, AID2357, AID2359, AID2370, AID2420, AID2478, AID2491, AID2492, AID2493, AID2497, AID2498, AID2500, AID449737, AID488822, AID488842]
T2 sequence (P41145 whole entry): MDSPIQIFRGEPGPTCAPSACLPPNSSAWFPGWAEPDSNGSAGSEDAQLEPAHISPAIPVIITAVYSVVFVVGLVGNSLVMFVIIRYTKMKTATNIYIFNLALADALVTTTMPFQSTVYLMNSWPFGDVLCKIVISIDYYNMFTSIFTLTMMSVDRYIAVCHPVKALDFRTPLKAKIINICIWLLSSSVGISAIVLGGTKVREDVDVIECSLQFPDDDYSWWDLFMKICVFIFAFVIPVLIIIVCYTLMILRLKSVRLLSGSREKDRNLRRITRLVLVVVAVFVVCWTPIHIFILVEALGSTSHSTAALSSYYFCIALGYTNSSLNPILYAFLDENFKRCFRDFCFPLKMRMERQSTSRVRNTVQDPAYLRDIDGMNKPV

[4] = biological target: T2, Kappa-type opioid receptor; assay: KOR agonist analogs, imaging readout, SAR follow-up, image-based (AID 2359)
Mu-type opioid receptor [5] = biological target: T3, Mu-type opioid receptor (Homo sapiens, UniProt P35372); assay: HTS Image-Based Screen for Agonists of the MOR Receptor. [Related pubchem assays (depositor defined):AID1777, AID1785, AID1786, AID2133]
T3 sequence (P35372 whole entry): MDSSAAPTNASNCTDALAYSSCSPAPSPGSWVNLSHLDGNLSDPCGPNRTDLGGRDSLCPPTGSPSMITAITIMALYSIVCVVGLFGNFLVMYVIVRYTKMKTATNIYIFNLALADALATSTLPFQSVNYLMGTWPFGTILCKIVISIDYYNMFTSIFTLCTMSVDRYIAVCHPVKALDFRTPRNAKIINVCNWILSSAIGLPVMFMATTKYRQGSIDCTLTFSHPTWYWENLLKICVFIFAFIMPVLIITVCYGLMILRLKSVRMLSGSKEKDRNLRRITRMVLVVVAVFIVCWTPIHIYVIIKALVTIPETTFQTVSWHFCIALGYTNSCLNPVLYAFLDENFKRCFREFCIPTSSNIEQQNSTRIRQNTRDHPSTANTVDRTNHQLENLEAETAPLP

[6] = biological target: T2, Kappa-type opioid receptor; assay: KOR antagonists by imaging, SAR follow-up, image-based (AID 2348)
Mu-type opioid receptor [7] = biological target: T3, Mu-type opioid receptor; assay: MOR agonists by imaging, SAR follow-up, image-based (AID 2352)
[8] = biological target: T1, Delta-type opioid receptor; assay: HTS Image-Based Screen for Antagonists of the DOR Receptor. [Related pubchem assays (depositor defined):AID1777, AID1785, AID1786, AID2133]
[9] = biological target: T2, Kappa-type opioid receptor
Mu-type opioid receptor [10] = biological target: T3, Mu-type opioid receptor; assay: MOR antagonists, SAR follow-up, image-based (AID 2420);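 further: compounds added before stimulation of receptor with agonist DAMGO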
[11] = biological target: T2, Kappa-type opioid receptor; remark: listed apart in the source
[12] = biological target: T1, Delta-type opioid receptor; assay: HTS Image-Based Screen for Agonists of the DOR Receptor. [Related pubchem assays (depositor defined):AID1777, AID1786, AID2133]
[13] = biological target: Sphingosine 1-phosphate receptor 2 (Homo sapiens, UniProt O95136); assay: Dose Response Cell Based Assay for Agonists of the S1P2 Receptor. [Related pubchem assays: 729, 736, 843 ]
Sequence of Sphingosine 1-phosphate receptor 2 (O95136 whole entry): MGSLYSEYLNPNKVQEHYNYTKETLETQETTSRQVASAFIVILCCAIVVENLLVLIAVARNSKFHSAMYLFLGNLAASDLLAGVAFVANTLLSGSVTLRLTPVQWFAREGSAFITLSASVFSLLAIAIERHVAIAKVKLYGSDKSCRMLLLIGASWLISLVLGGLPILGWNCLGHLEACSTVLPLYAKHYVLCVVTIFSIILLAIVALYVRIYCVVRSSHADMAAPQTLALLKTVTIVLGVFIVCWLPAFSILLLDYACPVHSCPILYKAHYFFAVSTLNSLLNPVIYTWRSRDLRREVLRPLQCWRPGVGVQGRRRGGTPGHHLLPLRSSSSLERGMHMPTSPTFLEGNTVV

[14] = biological target: Sphingosine 1-phosphate receptor 1 (Homo sapiens, UniProt P21453); assay: Fluorescence-based counterscreen assay for S1P4 agonists: Cell-based dose response high throughput screening assay to identify agonists of the Sphingosine 1-Phosphate Receptor 1 (S1P1). [Related pubchem assays (depositor defined):AID1509, AID1523, AID1801, AID463107, AID463118, AID463119, AID463122, AID463123, AID463129, AID463225, AID504400, AID504460]
Sequence of Sphingosine 1-phosphate receptor 1 (P21453 whole entry): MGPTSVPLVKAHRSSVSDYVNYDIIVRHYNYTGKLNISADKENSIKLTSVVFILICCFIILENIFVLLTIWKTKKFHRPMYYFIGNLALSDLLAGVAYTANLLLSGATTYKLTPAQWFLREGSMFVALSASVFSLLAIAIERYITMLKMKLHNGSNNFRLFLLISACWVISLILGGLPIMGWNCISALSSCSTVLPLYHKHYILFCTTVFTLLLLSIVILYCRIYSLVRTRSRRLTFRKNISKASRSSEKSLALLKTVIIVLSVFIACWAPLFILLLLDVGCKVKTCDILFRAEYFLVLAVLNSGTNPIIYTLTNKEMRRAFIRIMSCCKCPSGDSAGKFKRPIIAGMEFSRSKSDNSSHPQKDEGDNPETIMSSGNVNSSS

[15] = biological target: T4, 5-hydroxytryptamine receptor 1A (Homo sapiens, UniProt P08908)
T4 sequence (P08908 whole entry): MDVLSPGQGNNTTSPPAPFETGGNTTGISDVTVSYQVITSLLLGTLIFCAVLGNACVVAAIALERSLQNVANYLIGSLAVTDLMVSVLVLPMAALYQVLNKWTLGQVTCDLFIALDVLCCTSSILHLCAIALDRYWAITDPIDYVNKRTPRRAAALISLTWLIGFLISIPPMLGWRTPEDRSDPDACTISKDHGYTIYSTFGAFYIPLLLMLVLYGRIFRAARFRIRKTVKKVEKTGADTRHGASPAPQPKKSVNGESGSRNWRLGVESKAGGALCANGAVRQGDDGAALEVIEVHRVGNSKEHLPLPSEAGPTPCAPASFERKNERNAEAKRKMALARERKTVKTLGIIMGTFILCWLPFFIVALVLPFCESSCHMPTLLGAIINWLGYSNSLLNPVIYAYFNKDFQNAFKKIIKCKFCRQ

[16] = biological target: T5, Sphingosine 1-phosphate receptor 4 (Homo sapiens, UniProt O95977); assay: Fluorescence dose response cell-based high throughput screening assay for agonists of the Sphingosine 1-Phosphate Receptor 4 (S1P4). [Related pubchem assays: 1509 (Primary screen.), 1523 (Confirmation screen in triplicates.)]
T5 sequence (O95977 whole entry): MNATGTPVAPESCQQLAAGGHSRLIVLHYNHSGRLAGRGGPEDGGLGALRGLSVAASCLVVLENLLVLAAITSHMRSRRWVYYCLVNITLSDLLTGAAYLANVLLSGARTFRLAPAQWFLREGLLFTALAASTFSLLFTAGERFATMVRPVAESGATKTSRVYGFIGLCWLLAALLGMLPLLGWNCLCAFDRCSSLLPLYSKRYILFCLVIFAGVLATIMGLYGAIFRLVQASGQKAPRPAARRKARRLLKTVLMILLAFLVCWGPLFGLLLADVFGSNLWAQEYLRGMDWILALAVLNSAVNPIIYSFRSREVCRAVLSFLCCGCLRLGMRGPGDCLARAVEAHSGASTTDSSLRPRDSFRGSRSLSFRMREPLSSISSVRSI

T1 sequence (P41143 whole entry): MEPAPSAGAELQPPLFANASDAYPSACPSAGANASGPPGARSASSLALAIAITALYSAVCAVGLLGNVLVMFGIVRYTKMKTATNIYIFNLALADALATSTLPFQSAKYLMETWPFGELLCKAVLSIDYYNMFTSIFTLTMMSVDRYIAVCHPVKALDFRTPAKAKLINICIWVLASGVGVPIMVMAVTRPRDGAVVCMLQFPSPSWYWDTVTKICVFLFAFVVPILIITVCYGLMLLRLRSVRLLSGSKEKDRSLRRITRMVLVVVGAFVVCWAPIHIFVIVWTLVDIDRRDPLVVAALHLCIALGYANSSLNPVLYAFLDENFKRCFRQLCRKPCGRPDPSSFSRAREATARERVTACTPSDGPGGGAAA

Structure (SMILES)	EC50 [1]	IC50 [2]	EC50 [3]	EC50 [4]	EC50 (Mu-type opioid receptor [5])	IC50 [6]	EC50 (Mu-type opioid receptor [7])	IC50 [8]	EC50 [9] [µM]	IC50 (Mu-type opioid receptor [10])	EC50 [11] [µM]	EC50 [12]	EC50 [13]	EC50 [14]	EC50 [15]	EC50 [16]
CCCCN(Cc1cc2ccccc2nc1O)C(=O)c1ccccn1	> 32 µM (inactive)	> 32 µM (inactive)	8.1 µM (active)	5.31 µM (active)	> 32 µM (inactive)	> 32 µM (inactive)	> 32 µM (inactive)	> 32 µM (inactive)	3.16	> 32 µM (inactive)	4.27	> 32 µM (inactive)	–	–	–	–
CCOC(=O)c1cc2ccc(OC(=O)c3ccco3)cc2oc1=O	–	–	–	–	–	–	–	–	–	–	–	–	1.99 µM (active)	2.08 µM (active)	> 50 µM (not active)	0.785 µM (active)
